In patent publication US20220023401A1 (priority 2020, published 2022):
Where “and” joins values, the source holds several entries; their conditions need not be identical. Identical values can stand only once.

Key:
[1] = system: sera from vaccinated baboons (anti-Aβ antibodies); type: binding
[2] = system: antisera from immunized Cynomolgus macaques; type: binding; design: unit not given here
[3] = system: Peripheral Blood Mononuclear Cells (PBMCs); type: cell-based, Cynomolgus macaque
[4] = system: Peripheral blood mononuclear cells (PBMC); type: cell-based, human
[5] = system: Peripheral blood mononuclear cells (PBMC); type: cell-based, human; remark: listed apart in the source
Aβ1-42 = system: Aβ1-42; design: species or system guinea pigs; settings: guinea pig, in vivo
MvF4 Th (SEQ ID NO: 44) = system: MvF4 Th (SEQ ID NO: 44); design: species or system guinea pigs; settings: guinea pig, in vivo
[6] = system: HBsAg2 Th (SEQ ID NO: 45); design: species or system guinea pigs; settings: guinea pig, in vivo
baboon anti-Aβ antibody = type: binding, baboons

Row | Substance | ELISA Titer (Log10) [1] | Specificity analysis of antisera (ELISA reactivity with peptide) [2] | further results
1 | EISEVKMDAE (PEPTIDE (1)..(10) Abeta -7-3 or APP 770(E665-E674); listed as Homo sapiens) [SEQ ID NO: 10] | 0.23 Log10 and 0.25 Log10 and 0.16 Log10 and 0.14 Log10 | 0.060 and 0.056 and 0.064 and 0.053 | –
2 | phytohaemagglutinin [PHA] | – | – | IL-2 cytokine concentration [3]: 97.5 ± 6.6 pg/mL and 90.6 ± 12.4 pg/mL and 96.1 ± 13.3 pg/mL; IL-6 cytokine concentration [3]: 69.1 ± 12.0 pg/mL and 70.6 ± 15.7 pg/mL and 66.2 ± 7.3 pg/mL; TNF-α cytokine concentration [3]: 91.0 ± 29.1 pg/mL and 96.1 ± 22.2 pg/mL and 89.0 ± 13.7 pg/mL; Mean stimulation index, Difference [4]: −0.98; Mean stimulation index, Week 0 [4]: 28.73; Mean stimulation index, Week 16 [4]: 27.75; proliferation response by lymphocytes when added to the culture medium ([4]; 10 μg/mL): positive proliferation responses; IFN-γ mean cytokine concentration, Week 0 [5]: >320.00 pg/mL; IFN-γ mean cytokine concentration, Week 16 [5]: >318.91 pg/mL; IL-2 mean cytokine concentration, Week 0 [5]: 10.38^7 pg/mL; IL-2 mean cytokine concentration, Week 16 [5]: 12.84^7 pg/mL; IL-6 mean cytokine concentration, Week 0 [5]: >320.00 pg/mL; IL-6 mean cytokine concentration, Week 16 [5]: >320.00 pg/mL; IL-10 mean cytokine concentration, Week 0 [5]: 173.83 pg/mL; IL-10 mean cytokine concentration, Week 16 [5]: >162.77 pg/mL; TNF-α mean cytokine concentration, Week 0 [5]: >313.01 pg/mL; TNF-α mean cytokine concentration, Week 16 [5]: >300.87 pg/mL
3 | ISEVKMDAEF (PEPTIDE (1)..(10) Abeta -6-4 or APP 770(I666-F675); listed as Homo sapiens) [SEQ ID NO: 11] | 0.20 Log10 and 0.15 Log10 and 0.13 Log10 | 0.055 and 0.058 and 0.063 and 0.062 | –
4 | HDSGYEVHHQ (PEPTIDE (1)..(10) Abeta 6-15 or APP 770(H677-Q686); listed as Homo sapiens) [SEQ ID NO: 21] | – | 0.266 and 0.494 and 0.419 and 0.332 | –
5 | Aβ1-14-ϵK-HBsAg2 Th [SEQ ID NO: 63] | – | – | Aβ1-42 ELISA (SEQ ID NO: 1) Log10 Titer (Aβ1-42): 3.596 Log10 and 3.653 Log10 and 3.696 Log10 and 3.681 Log10 and 3.836 Log10 and 3.744 Log10; Aβ1-42 ELISA (SEQ ID NO: 1) Log10 Titer, Geomean (Aβ1-42): 3.700 Log10; MvF4 Th ELISA (SEQ ID NO: 44) Log10 Titer (MvF4 Th (SEQ ID NO: 44)): 0.575 Log10 and 0.423 Log10 and 0.380 Log10 and 0.279 Log10 and 0.336 Log10 and 0.425 Log10; MvF4 Th ELISA (SEQ ID NO: 44) Log10 Titer, Geomean (MvF4 Th (SEQ ID NO: 44)): 0.393 Log10; reactivity against the two T helper epitopes (SEQ ID NOs: 44 and 45) (MvF4 Th (SEQ ID NO: 44)): little or no reactivity; HBsAg2 Th ELISA (SEQ ID NO: 45) Log10 Titer, Geomean [6]: 0.375 Log10
6 | EVKMDAEFRH (PROPEP (1)..(10) Abeta -4-6 or APP 770(E668-H677); listed as Homo sapiens) [SEQ ID NO: 13] | 0.19 Log10 and 0.23 Log10 and 0.16 Log10 and 0.14 Log10 | 0.046 and 0.047 and 0.054 | –
7 | Aβ1-14-ϵK-KKK-MvF4 Th [SEQ ID NO: 62] | – | – | Aβ1-42 ELISA (SEQ ID NO: 1) Log10 Titer, Geomean (Aβ1-42): 4.208 Log10; MvF4 Th ELISA (SEQ ID NO: 44) Log10 Titer (MvF4 Th (SEQ ID NO: 44)): 0.268 Log10 and 0.216 Log10 and 0.196 Log10 and 0.179 Log10 and 0.332 Log10 and 0.286 Log10; MvF4 Th ELISA (SEQ ID NO: 44) Log10 Titer, Geomean (MvF4 Th (SEQ ID NO: 44)): 0.240 Log10; reactivity against the two T helper epitopes (SEQ ID NOs: 44 and 45) (MvF4 Th (SEQ ID NO: 44)): little or no reactivity; HBsAg2 Th ELISA (SEQ ID NO: 45) Log10 Titer, Geomean [6]: 0.397 Log10
8 | VKMDAEFRHD (PEPTIDE (1)..(10) Abeta -3-7 or APP 770(V669-D678); listed as Homo sapiens) [SEQ ID NO: 14] | 0.27 Log10 and 0.46 Log10 and 0.48 Log10 and 0.55 Log10 | 0.068 and 0.053 and 0.061 and 0.054 | –
9 | MDAEFRHDSG (PEPTIDE (1)..(10) Abeta -1-9 or APP 770(M671-G680); listed as Homo sapiens) [SEQ ID NO: 16] | 0.26 Log10 and 0.32 Log10 and 0.16 Log10 and 0.17 Log10 | 0.056 and 0.061 and 0.051 | Percent (%) Inhibition ELISA after peptide pre-absorption of sera (baboon anti-Aβ antibody): 8%
10 | KMDAEFRHDS (PEPTIDE (1)..(10) Abeta -2-8 or APP 770(K670-S679); listed as Homo sapiens) [SEQ ID NO: 15] | 0.26 Log10 and 0.36 Log10 and 0.41 Log10 and 0.51 Log10 | – | –
11 | TEEISEVKMD (PEPTIDE (1)..(10) Abeta -9-1 or APP 770(T663-D672); listed as Homo sapiens) [SEQ ID NO: 8] | 0.23 Log10 and 0.26 Log10 and 0.16 Log10 and 0.15 Log10 | 0.075 and 0.084 and 0.061 and 0.078 | –
12 | SGYEVHHQKL (PEPTIDE (1)..(10) Abeta 8-17 or APP 770(S679-L688); listed as Homo sapiens) [SEQ ID NO: 23] | – | 0.097 and 0.071 and 0.077 and 0.082 | –
13 | QKLVFFAEDV (PEPTIDE (1)..(10) Abeta 15-24 or APP 770(Q686-V695); listed as Homo sapiens) [SEQ ID NO: 30] | – | 0.043 and 0.055 and 0.062 and 0.059 | –
14 | YEVHHQKLVF (PEPTIDE (1)..(10) Abeta 10-19 or APP 770(Y681-F690); listed as Homo sapiens) [SEQ ID NO: 25] | 0.16 Log10 and 0.43 Log10 and 0.15 Log10 and 0.22 Log10 | 0.092 and 0.069 and 0.058 | –
15 | SEVKMDAEFR (PEPTIDE (1)..(10) Abeta -5-5 or APP 770(S667-R676); listed as Homo sapiens) [SEQ ID NO: 12] | 0.21 Log10 and 0.24 Log10 and 0.16 Log10 and 0.13 Log10 | 0.056 and 0.053 and 0.054 and 0.050 | –
16 | AEFRHDSGYE (PEPTIDE (1)..(10) Abeta 2-11 or APP 770(A673-E682); listed as Homo sapiens) [SEQ ID NO: 17] | 0.25 Log10 and 0.35 Log10 and 0.19 Log10 | 0.058 and 0.059 and 0.054 and 0.060 | Percent (%) Inhibition ELISA after peptide pre-absorption of sera (baboon anti-Aβ antibody): 0%
17 | EFRHDSGYEV (PEPTIDE (1)..(10) Abeta 3-12 or APP 770(E674-V683); listed as Homo sapiens) [SEQ ID NO: 18] | 0.24 Log10 and 0.30 Log10 and 0.18 Log10 | 0.047 and 0.060 and 0.042 and 0.052 | Percent (%) Inhibition ELISA after peptide pre-absorption of sera (baboon anti-Aβ antibody): 0% and 1% and 3%
18 | EEISEVKMDA (PEPTIDE (1)..(10) Abeta -8-2 or APP 770(E664-A673); listed as Homo sapiens) [SEQ ID NO: 9] | 0.24 Log10 and 0.30 Log10 and 0.21 Log10 and 0.22 Log10 | 0.082 and 0.092 and 0.081 and 0.076 | –
19 | GYEVHHQKLV (PEPTIDE (1)..(10) Abeta 9-18 or APP 770(G680-V689); listed as Homo sapiens) [SEQ ID NO: 24] | 0.13 Log10 and 0.27 Log10 and 0.19 Log10 and 0.12 Log10 | 0.055 and 0.067 and 0.052 and 0.059 | –
20 | HHQKLVFFAE (PEPTIDE (1)..(10) Abeta 13-22 or APP 770(H684-E693); listed as Homo sapiens) [SEQ ID NO: 28] | 0.19 Log10 and 0.22 Log10 and 0.13 Log10 and 0.12 Log10 | 0.044 and 0.052 and 0.046 and 0.032 | –
21 | HQKLVFFAED (PEPTIDE (1)..(10) Abeta 14-23 or APP 770(H685-D694); listed as Homo sapiens) [SEQ ID NO: 29] | 0.18 Log10 and 0.21 Log10 and 0.13 Log10 | 0.050 and 0.058 and 0.047 | –
22 | RHDSGYEVHH (PEPTIDE (1)..(10) Abeta 5-14 or APP 770(R676-H685); listed as Homo sapiens) [SEQ ID NO: 20] | 0.23 Log10 and 0.34 Log10 and 0.27 Log10 and 0.41 Log10 | 0.296 and 0.400 and 0.453 and 0.461 | –
23 | FRHDSGYEVH (PEPTIDE (1)..(10) Abeta 4-13 or APP 770(F675-H684); listed as Homo sapiens) [SEQ ID NO: 19] | 0.20 Log10 and 0.40 Log10 and 0.22 Log10 and 0.30 Log10 | 0.085 and 0.076 and 0.066 and 0.096 | –
